Source: patent publication EP0406111A1, “Substituted arylamines and heteroarylamines, process for their preparation and pharmaceutical composition containing them” (SOCIETE DE CONSEILS DE […] D'APPLICATIONS SCIENTIFIQUES …, priority 1989, dated 1991)
Like-named read-outs stand apart in the source and are kept apart here.

Experiments:
[1] = target: T1, capture de (³H)dopamine par les synaptosomes striataux de rat (Rattus norvegicus, UniProt P23977); assay: biochemical
T1 construct: Les culots résultants P2 contenant les synaptosomes bruts sont ensuite utilisés sans purification supplémentaire; from tissue; host or cells: Wistar rat striatum, crude synaptosomes (P2 pellet)
T1 sequence (P23977 whole entry): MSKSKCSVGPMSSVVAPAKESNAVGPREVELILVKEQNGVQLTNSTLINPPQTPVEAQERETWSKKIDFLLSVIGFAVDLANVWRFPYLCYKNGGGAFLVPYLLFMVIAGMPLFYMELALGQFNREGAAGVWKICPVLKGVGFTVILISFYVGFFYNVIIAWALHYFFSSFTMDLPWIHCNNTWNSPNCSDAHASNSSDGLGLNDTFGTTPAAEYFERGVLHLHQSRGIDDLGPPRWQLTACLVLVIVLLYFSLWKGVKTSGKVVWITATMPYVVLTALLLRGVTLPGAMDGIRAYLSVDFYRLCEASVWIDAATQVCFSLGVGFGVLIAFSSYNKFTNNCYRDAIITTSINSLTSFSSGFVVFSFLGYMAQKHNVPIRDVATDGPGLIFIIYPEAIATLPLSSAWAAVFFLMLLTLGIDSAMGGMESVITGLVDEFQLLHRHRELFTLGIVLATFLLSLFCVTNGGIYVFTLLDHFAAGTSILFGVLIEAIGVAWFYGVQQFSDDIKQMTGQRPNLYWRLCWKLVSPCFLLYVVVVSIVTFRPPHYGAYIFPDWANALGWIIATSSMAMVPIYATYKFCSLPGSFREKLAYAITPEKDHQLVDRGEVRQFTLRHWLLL
Procedure: Ce test est pratiqué selon la méthode utilisée par Vignon et Lazdunski en opérant de la façon suivante. Des rats Wistar pesant 200-250g sont tués par dislocation cervicale. Leurs cerveaux sont rapidement prélevés et les striata sont dissé-qués sur la glace. Les striata sont ensuite homogéné-isés (10 allers-retours) avec un homogénéisant Potter dans 50 volumes de tampon Tris HCl 10 mM à pH 7,4 contenant 0,32 M de sucrose. L'homogénat est ensuite centrifugé à 1000g pendant 10min à 4°C, puis le surnageant obtenu est recentrifugé à 10000g pendant 20min à 4°C. Les culots résultants P2 contenant les synaptosomes bruts sont ensuite utilisés sans purification supplémentaire.
On ajoute alors de la dopamine tritiée ((³H)DA, Amersham) à une concentration finale de 5 nM pendant 5 min à 30°C, et on interrompt sa capture par filtration de 150 µl du milieu d'incubation sur des filtres en fibres de verre GF/B (Whatman). La radioactivité retenue par les filtres est mesurée dans un compteur à scintillation liquide (LKB)avec 3 ml d'ACS (Amersham) comme scintillant. La capture non spécifique est mesurée à 4°C dans des incubations parallèles : elle est ensuite sous-traite de la capture totale mesurée à 30°C.
Les composés à tester sont solubilisés au départ dans de l'eau à une concentration de 1mM et les autres concentrations sont obtenues par des dilutions successives de cette solution mère dans l'eau.

[2] = target: T2, complexe de recapture de la dopamine (Rattus norvegicus, UniProt P23977); assay: biochemical; format: binding; conditions: for Sélectivité IC50[^3H]TCP / IC50[^3H]BTCP: ratio of IC50 at the PCP receptor to IC50 at the dopamine reuptake complex
T2 construct: expériences de compétition sur les membranes de striatum préparées comme ci-dessus; from tissue; host or cells: rat striatal membranes
T2 sequence (P23977 whole entry, one chain of several): as the sequence (P23977 whole entry) above
Procedure: Exemple 35 : Affinité des composés pour les sites de liaison de la (³H)BTCP sur les membranes striatales de cerveaux de rats.
Les striata de cerveaux de rats rapidement disséqués dans la glace sont homogénéisés avec un ultra turax pendant 30 s (position 6) dans 50 volumes d'une solution de sucrose 0,32 M tamponnée par du Tris-HCl 10 mM à pH = 7,4. L'homogénat est centrifugé à 4°C à 1000g pendant 10 mln, puis le surnageant obtenu est centrifugé à 40000 g à 4°C pendant 30 min et les culots obtenus sont repris dans 1 ml de tampon par striatum.
L'affinité des composés pour le complexe de recapture de la dopamine est déterminée par des expériences de compétition sur les membranes de striatum préparées comme ci-dessus. Le ligand radioactif utilisé est la (³H)BTCP (Service des Molécules Marquées du CEA, Saclay France) à 55Ci/mmol.
Après 90 min à 4°C, 3 aliquots de 250 µl sont filtrés sous vide sur des filtres de fibre de verre GF/B (Whatman). La liaison non spécifique est obtenue dans des expériences parallè-les réalisées en présence de 10 µM de BTCP non marquée. Elle est soustraite de la liaison totale pour obtenir la liaison spécifique.

souris Swiss = assay: Locomotor activity of mice in the Boissier-Simon actimeter (Example 38); format: in vivo; conditions: 30 min after administration, beams crossed from 20th to 35th minute
Procedure: Exemple 38 : Mesure de l'activité locomotrice.
L'activité locomotrice de souris Swiss (mâles CD1, 25-30 g, Charles River, St Aubin lès Elbeuf, France) est mesurée dans l'actimètre Boissier-Simon (Apelex, Bagneux, France).
30 minutes après l'administration des composés à tester (10 mg/kg, i.p.), les souris sont introduites dans des cages individuelles en Plexiglass (L = 26 cm, l = 20 cm, h = 10 cm), équipées de deux cellules photoélectriques situées à 1 cm au-dessus du plancher. Chaque cellule est reliée à un compteur électromécanique. "L'activité locomotrice" correspond au nombre de rayons traversés, de la 20ème à la 35ème minute après introduction dans les cages d'actimétrie.

récepteur de la PCP = assay: Competition binding at the (3H)TCP sites on rat brain homogenates (Example 36); conditions: 1 nM (3H)TCP, 30 min at 25°C
Text: Exemple 36 : Affinité des composés pour les sites de liaison de la (³H)TCP sur les homogénats de cerveaux de rats.
Dans cet essai on mesure les affinités des composés pour le récepteur de la PCP par des expériences de compétition sur des homogénats de cerveaux de rats. Le ligand radioactif utilisé est la (³H)TCP à une activité spécifique de 62 Ci/mmol (Service des Molécules Marquées, CEA Saclay France).
Les cerveaux de rats (sans le cervelet et le tronc cérébral) sont homogénéisés à l'ultra turax dans 20 volumes de tampon Hepes-Tris 50 mM, pH 7,7. Après centrifugation pendant 30 min à 15000 g le culot est repris dans le même volume de tampon et recentrifugé dans les mêmes conditions. Le culot final est repris dans du tampon Hepes-Tris 50 mM, pH 7,7 de façon à obtenir une concentration en protéine de 6 à 8 mg/ml.
Les expériences de compétition sont réalisées en incubant pendant 30 min les membranes (concentration finale en protéine : 0,6 à 0,8 mg/ml) en milieu tampon 5 mM Hepes-Tris, pH 7,7 à 25°C, en présence d'une concentration fixe de ligand tritié (1 nM)et de concentrations croissantes de composés à tester. Trois échantillons de 600 µL sont ensuite filtrés sur filtres de fibres de verre GF/B prétraités par du PEI (polyéthylénimine) à 0,1%. Les filtres sont rincés avec 3x5ml de tampon Tris-HCl 10 mM, NaCl 100 mM et la radioactivité retenue est mesurée dans un compteur à scintillation liquide. La liaison non spécifique est obtenue en présence de TCP […].

[3] = test system: fixation de la (³H)BTCP dans le striatum de souris; assay: Inhibition of in vivo (3H)BTCP binding in mouse striatum (Example 40); conditions: mice, compound s.c. 60 min before i.v. (3H)BTCP, sacrifice 30 min later
Procedure: Exemple 40 : Etude de l'inhibition de la fixation "in vivo" de (³H)BTCP chez la souris.
Pour cette étude, on utilise des souris Swiss mâles pesant 20 à 25g. Les souris sont réparties par groupes et alimentées avec de la nourriture standard de laboratoire et de l'eau à volonté, en réalisant des cycles de lumière artificielle de 12h consécutives à partir de 7h du matin. Les expériences sont effectuées entre 10h et 18h. Les mesures de la fixation "in vivo" de la (³H)BTCP sont effectuées comme il a été décrit par Maurice et al, 1989, de la façon suivante.
On injecte aux souris par voie sous-cutanée le composé à tester dans 100µl de solution physiologique pour les composés n^o 4 et n^o 16 et dans 100µl d'un mélange 1:1 en volume de solution physiologique et de DMSO pour le composé n^o 26. 60 min après cette injection on leur injecte dans une veine de la queue (³H)BTCP à une dose de 5µCi dans 100µl d'un mélange de solution physiologique et d'éthanol à 5%. 30min après cette injection, on sacrifie les souris. Les striata de cerveaux sont rapidement disséqués et homogénéisés avec un ultra turrax (IKA Verk) réglage maximum pendant 20s dans 80 volumes d'un tampon Na₂HPO₄, HCl 50mM, pH=7,4 à 4°C. Deux aliquots de […] sont filtrées sous pression réduite sur des filtres GF/B (Whatman) prétraités par de la polyéthylène imine à 0,5% (Aldrich). On rince ensuite les filtres deux fois avec 5ml d'un tampon NaCl 50mM, tris-HCl 10mM, pH=7,4 à 4°C. La radioactivité fixée qui reste sur les filtres, et la radioactivité totale, obtenue à partir des deux aliquots de 200µl d'homogénats sont mesurées dans des flacons de 6ml contenant 3,5ml de ACS (Amersham) avec un spectrophotomètre à scintillation liquide Excel 1410 (LKB). La fixation non spécifique est définie comme la radioactivité présente dans chaque région après prétraitement des animaux avec de la BTCP (40mg/kg dans 100µl de solution saline), injectée par voie sous-cutanée, 60min avant l'injection de (³H)BTCP. Les résultats sont exprimés sous la forme des rapports radioactivité fixée / radioactivité libre (B/F) dans lesquels le taux de (³H)BTCP libre est estimé en soustrayant la radioactivité fixée de la radioactivité totale.

[4] = rat striatal synaptosomes, 5 nM (3H)DA, 5 min at 30°C, read-out: [3H] DA IC50
[5] = rat striatal membranes, 0,2 nM (3H)BTCP, 90 min at 4°C, read-out: [3H] BTCP IC50

SMILES | IC50 [1, 4] [nM] | IC50 [2, 5] [nM] | further results
CC1CC(C)CN([C@]2(c3cc4ccccc4s3)CC[C@H](C)CC2)C1 (relative stereo) [composé n^o 13, (benzo(b)thiophényl-2)-1-r-((diméthyl-3,5 pipéridino)-1)-1 c-méthyl-4 cyclohexane] | 425 | 635 | –
C[C@H]1CCC[C@@](c2cc3ccccc3s2)(N2CCCCC2)C1 (relative stereo) [composé n^o 22, (benzo(b)thiophényl-2)-1 c-méthyl-3-r-(piperidino-1)-1 cyclohexane] | 691 | 369 | –
C[C@H]1CCCC[C@@]1(c1cc2ccccc2s1)N1CCCCC1 (relative stereo) [composé n^o 24, (benzo(b)thiophényl--2)-1 c-méthyl-2-r-(pipéridino-1)-1 cyclohexane] | 30.6 | 14.7 | Activité locomotrice Variation (%) par rapport aux témoins (100%) pour la dose 10 mg/kg,i.p. (souris Swiss): +101±23%
CCN(CC)C1(c2cc3ccccc3s2)CCCCC1 [composé n^o8, (benzo(b)thiophényl-2)-1 (diéthylamino-1)-1 cyclohexane] | – | – | IC50 [1]: 20.1 nM; Activité locomotrice Variation (%) par rapport aux témoins (100%) pour la dose 10 mg/kg,i.p. (souris Swiss): +52±21%; IC50 [2]: 16.7 nM
c1ccc2sc(C3(N4CCC5(CC4)OCCO5)CCCCC3)cc2c1 [composé n^o 5, (benzo(b)thiophényl-2)-1 ((éthylènekétal-4 pipéridino)-1)-1 cyclohexane] | 65.7 | 35.5 | IC50 (récepteur de la PCP): > 100000 nM; Sélectivité IC50[^3H]TCP / IC50[^3H]BTCP [2]: >>2816
CC1CCN(C2(c3cc4ccccc4s3)CCCCC2)CC1 [composé n^o 7, (benzo(b)thiophényl-2)-1 ((méthyl-4 pipéridino)-1)-1 cyclohexane] | 11.5 | 30.8 | –
OCC1CCCN(C2(c3cc4ccccc4s3)CCCCC2)C1 (stereo not drawn) [composé n^o 9, (benzo(b)thiophényl-2)-1 ((hydroxyméthyl-3 pipéridino)-1)-1 cyclohexane] | 20.9 | 18.1 | Activité locomotrice Variation (%) par rapport aux témoins (100%) pour la dose 10 mg/kg,i.p. (souris Swiss): +416±36%
ICC1CCCN(C2(c3cc4ccccc4s3)CCCCC2)C1 (stereo not drawn) [composé n^o 11] | 54.3 | 26 | IC50 (récepteur de la PCP): > 100000 nM; Sélectivité IC50[^3H]TCP / IC50[^3H]BTCP [2]: >>3846
ClCC1CCCN(C2(c3cc4ccccc4s3)CCCCC2)C1 (stereo not drawn) [composé n^o 12, (benzo(b)thiophényl-2)-1 ((chlorométhyl-3 pipéridino)-1)-1 cyclohexane] | 107 | 102 | –
CC1CC(C)CN(C2(c3cc4ccccc4o3)CCCC(C)C2)C1 (stereo not drawn) [composé n^o 14, (benzo(b)furannyl-2)-1-r-((diméthyl-3,5 pipéridino)-1)-1 t-méthyl-3 cyclohexane] | 2740 | 2210 | –
CC(=O)OCC1CCCN(C2(c3cc4ccccc4s3)CCCCC2)C1 (stereo not drawn) [composé n^o 15, acétate de (benzo(b)-thiophényl-2)-1 ((hydroxyméthyl-3 pipéridino)-1)-1 cyclohexane] | 44.5 | 24 | –
c1ccc2cc(C3(N4CCCCC4)CCCCC3)ccc2c1 [composé n^o 16, (naphtyl-2)-1 (pipéridi-no-1)-1 cyclohexane] | 36.3 | 14.8 | Activité locomotrice Variation (%) par rapport aux témoins (100%) pour la dose 10 mg/kg,i.p. (souris Swiss): +269±57%; ID₅₀ (mg/kg) [3]: 2,66 mg/kg
c1ccc2c(C3(N4CCCCC4)CCCCC3)cccc2c1 [composé n^o 17, (naphtyl-1)-1 (pipéridino-1)-1 cyclohexane] | 3250 | 2560 | –
CC1CCCC(c2cc3ccccc3s2)(N2CCCCC2)C1 (stereo not drawn) [composé n^o 23, (benzo(b)thiophényl-2)-1 t-méthyl-3-r-(pipéridino-1)-1 cyclohexane] | 606 | 590 | –
CC1CCCCC1(c1cc2ccccc2s1)N1CCCCC1 (stereo not drawn) [composé n^o 25, (benzo(b)thiophényl-2)-1 t-méthyl-2--r-(pipéridino-1)-1 cyclohexane] | 1280 | 1480 | –
